Measured values published in US20210292347A1, “DIHETEROCYCLIC TRIAZINONE NUCLEOSIDE ANALOGS AND THEIR USE FOR MEDICATION” (priority 2020, published 2021).
pIC50: −log10 of the molar value. In brackets after ≈: the same amount, converted by molar mass. Entries after “also recorded” stand apart in the source; their conditions may differ. Where two headings read alike, the source gives them in different places.

Columns and labels:
mice sarcoma S180 = test: Growth inhibition of S180 sarcoma in mice; format: in vivo, Kunming healthy mice; conditions: for in-vivo anti-tumor efficacy, statistical significance (in words): S180 sarcoma in mice, doses and routes of Table 3
[1] = tested on: human colorectal cancer cell line HT29; test: cells; format: cell-based; conditions: for pIC50 / IC50: Homo sapiens; for pIC50: read-out: IC50 Colorectal cancer HT-29; for IC50: read-out: IC50 and 95% confidence limit, anti-proliferative effect on HT29; for anti-proliferative effect on HT29 (in words): colorectal cancer
Description: (§1) Cell lines: Human pancreatic cancer cell line Panc-1, human colorectal cancer cell line HT29, human lung cancer cell line NCI-H460 and human breast cancer cell line MCF7; the medium: s DMEM (Gibco BRL), containing 10% fetal calf serum (Gibco BRL) and 2 mM L-glutamine (Gibco BRL).
(§2) Test samples: example compounds 7, 15, 82, 89, 116 and 135. The samples were dissolved in dimethyl sulfoxide (DMSO, Sigma, United States) and medium was added to the final concentration of 0.5%. Cyclophosphamide ware as positive control (Aldrich, United States, purity>96%).
(§3) General Method: cells were digested with trypsin and dispersed into single cells in the medium containing penicillin (25 U/ml) and streptomycin (25 μg/mL). The cells were seeded in 96-well culture plates (Corning Incorporated), at 37° C., with 5% CO2 present for 24 hours. The culture medium was removed, […] test compounds were added, cultured for 48 hours. Culture medium was removed and […] (MTT, USA Sigma products) was added. The result was assayed by SK601-based microplate reader (Japan Seikagaku company's products), 570 nm/630 nm optical density (OD). Cell viability determined by the formula: (Experimental group OD/control OD)×100%; CTX and the positive control subjects treated in the same material simultaneously.

[2] = tested on: human lung cancer cell line NCI-H460; test: cells; format: cell-based; conditions: for pIC50: Homo sapiens
Description: as §1, §2, §3

[3] = tested on: Human pancreatic cancer cell line Panc-1; test: cells; format: cell-based; conditions: for IC50: Homo sapiens, read-out: IC50 and 95% confidence limit, anti-proliferative effect on Panc-1
Description: as §1, §2, §3

[4] = tested on: human breast cancer cell line MCF7; test: cells; format: cell-based
Description: as §1, §2, §3

CCOC(=O)c1nn(O)c2c(=O)n(C3OC(COC(C(=O)O)P(NC(C)C)OCC#N)C(O)C3O)nnc12 (stereo not shown) [Example 116, 2-((cyanomethoxy)(isopropylamino)phosphino)-2-((5-(7-(ethoxycarbonyl)-5-hydroxy-4-oxo-4,5-dihydro-3H-pyrazolo[4,3-d][1,2,3]triazin-3-yl)-3,4-dihydroxytetrahydrofuran-2-yl)methoxy)acetic acid]
inhibition in vivo at 50 mg/kg (mice sarcoma S180; Mus musculus, S-180, mice, iv, 50 mg/kg, read-out: Inhibition rate (%) S180 sarcoma): < 40%
in-vivo anti-tumor efficacy, statistical significance (in words) (mice sarcoma S180): statistically significant
pIC50 ([1]; HT-29, 48 h): 5.57
IC50 ([1]; HT-29, 48 h): 2.68 µg/mL
anti-proliferative effect on HT29 (in words) [1]: the strongest; also recorded: higher inhibition activity
pIC50 ([2]; NCI-H460, 48 h, read-out: IC50 Lung cancer NCI-H460): 5.34
pIC50 ([2]; NCI-H460, 48 h, read-out: IC50 and 95% confidence limits, NCI-H460 cells): 5.34
inhibitory effect on NCI-H460 cells (in words) ([2]; lung cancer): more sensitive to NCI-H460 cells
IC50 ([3]; PANC-1, 48 h): 2.19 µg/mL (≈ 3.91 µM)
anti-proliferative effect on Panc-1 (in words) ([3]; pancreatic cancer): a strong anti-proliferative effect, better than CTX; also recorded: higher inhibition activity
pIC50 ([4]; MCF7, 48 h, read-out: IC50 Breast cancer MCF7): 4.89
pIC50 ([4]; MCF7, 48 h, read-out: IC50 with 95% confidence limits, MCF7 cells): 4.89

CCCc1nn(C)c2c(=O)n(C3OC(COP(=O)(O)OP(=O)(O)OP(=O)(O)O)C(O)C3O)nnc12 (stereo not shown) [Example 135, (3,4-dihydroxy-5-(5-methyl-4-oxo-7-propyl-4,5-dihydro-3H-pyrazolo[4,3-d][1,2,3]triazin-3-yl)tetrahydrofuran-2-yl)methyl tetrahydrogen triphosphate]
inhibition in vivo at 25 mg/kg (mice sarcoma S180; Mus musculus, S-180, mice, iv, 25 mg/kg, read-out: Inhibition rate (%) S180 sarcoma): < 40%
in-vivo anti-tumor efficacy, statistical significance (in words) (mice sarcoma S180): statistically significant
IC50 ([1]; HT-29, MTT, 48 hours): 18 µg/mL
pIC50 ([1]; HT-29, MTT, cultured for 48 hours, value (95% confidence limit), Table 2): 4.75
anti-proliferative effect on HT29 (in words) [1]: relatively weak
pIC50 ([2]; NCI-H460, MTT, 48 hours, unit inferred, read-out: IC50 and 95% confidence limits, NCI-H460 cells): 4.85
pIC50 ([2]; NCI-H460, MTT, cultured for 48 hours, value (95% confidence limit), Table 2, read-out: IC50 Lung cancer NCI-H460): 4.85
IC50 ([3]; PANC-1, MTT, 48 hours): 53.5 µg/mL
pIC50 ([4]; MCF7, MTT, 48 hours, unit inferred, read-out: IC50 with 95% confidence limits, MCF7 cells): 5.24
pIC50 ([4]; MCF7, MTT, cultured for 48 hours, value (95% confidence limit), Table 2, read-out: IC50 Breast cancer MCF7): 5.24
